In ChEMBL document CHEMBL1135870, “4-Aminoquinolines as a novel class of NR1/2B subtype selective NMDA receptor antagonists” (Bioorg Med Chem Lett, 2002) one finds Ki, pKa and ED50 data, which are given here for 28 compounds.

Data set [1] addresses Glutamate NMDA receptor. Briefly: Binding affinity against N-methyl-D-aspartate glutamate receptor using [3H]25-6981 as radioligand. The data set is classed as protein-complex assay.
Data set [2] in a line: The ionization constant for the compound was tested using a potentiometric method. The data set is classed as physicochemical.
Data set [3] has as its system Mus musculus. Nature of the data set: In vivo effective dose required for 50% inhibition of sound induced seizures upon intraperitoneal dose, 30 min before testing in DBA/2 mice. The data set is classed as functional. The settings on record: ip.

In turn, `CCCCc1cc(NCC(O)CO)c2ccccc2n1` (stereo not given) had a Ki in data set [1] of 33000 nM.
In turn, `Cc1ccc(-c2cc(NCC(O)CO)c3ccccc3n2)cc1Cl` (stereo not given) came in with a Ki in data set [1] of 17 nM.
As to `OCC(O)CNc1cc(-c2ccc3c(c2)CCCC3)nc2ccccc12` (stereo not given), the Ki in data set [1] worked out at 22 nM.
Consider `OCC(O)CNc1ccnc2ccccc12` (stereo not given), for which the inhibitory constant (Ki) in data set [1] was over 35000 nM.
Take `CC(C)Oc1ccc(-c2cc(NCC(O)CO)c3ccccc3n2)cc1` (stereo not given): the inhibitory constant (Ki) in data set [1] was found to be 500 nM.
With `CCCNc1cc(-c2ccccc2)nc2ccccc12`, affinity in data set [1] was put at a Ki of 4900 nM.
`OCC(O)CNc1cc(-c2ccccc2)nc2ccccc12` (stereo not given): the pKa in data set [2] came out at 8.4. In data set [1], this compound returned a Ki of 260 nM.
In data set [1], `Cc1ccc(-c2cc(NC[C@H](C)O)c3ccccc3n2)cc1Cl` showed an inhibition constant Ki of 10 nM. Further, in data set [3], it took a dose of 12 mg/kg to reach the 50% effect level (ED50).
`Cc1ccccc1-c1cc(NCC(O)CO)c2ccccc2n1` (stereo not given) showed a Ki in data set [1] of 3700 nM.
`Nc1cc(-c2ccccc2)nc2ccccc12` displayed a pKa in data set [2] of 8.5. In data set [1], this compound had an inhibition constant (Ki) of 413 nM.
`OCCNc1cc(N2CCc3ccccc3C2)nc2ccccc12` returned a Ki in data set [1] of 3.5 nM. In data set [3], this compound showed an ED50 of under 12 mg/kg.
`C[C@H](O)CNc1cc(-c2ccccc2)nc2ccccc12`: the affinity in data set [1] corresponds to a Ki of 75 nM.
As for `COCCNc1cc(-c2ccccc2)nc2ccccc12`, the inhibition constant Ki in data set [1] was found to be 7500 nM.
With `Cc1cc(NCC(O)CO)c2ccccc2n1` (stereo not given), in data set [1], the inhibition constant (Ki) was over 40000 nM.
On to `COc1ccc(-c2cc(NCCO)c3ccccc3n2)cc1`, for which the affinity in data set [1] corresponds to a Ki of 15 nM. In data set [3], this compound showed an ED50 of 25 mg/kg.
In the case of `CC(O)CNc1cc(-c2ccccc2)nc2ccccc12` (stereo not given), the inhibition constant Ki in data set [1] was 260 nM.
Still for that read-out and setting: then `C[C@@H](O)CNc1cc(-c2ccccc2)nc2ccccc12`, with 450 nM.
Turning to `OCC(O)CNc1cc(-c2ccc(Cl)cc2)nc2ccccc12` (stereo not given), in data set [1], the inhibition constant (Ki) was 100 nM.
Still for that read-out and setting: the value for `COc1ccc(-c2cc(NCC(O)CO)c3ccccc3n2)cc1` (stereo not given) was 19 nM.
On the same count and under the same terms, the value for `OCC(O)CNc1cc(-c2ccc(O)cc2)nc2ccccc12` (stereo not given) was over 4000 nM; that for `CC(=O)CNc1cc(-c2ccccc2)nc2ccccc12` was 7900 nM.
Take `COc1ccc(-c2cc(NC[C@H](C)O)c3ccccc3n2)cc1C`: the affinity in data set [1] corresponds to a Ki of 10 nM. The compound also showed an ED50 in data set [3] of 17 mg/kg.
The compound `OCCNc1cc(-c2ccccc2)nc2ccccc12` came in with a Ki in data set [1] of 110 nM.
In data set [1], `COc1ccc(-c2cc(NCC(O)CO)c3ccccc3n2)cc1C` (stereo not given) came in with an inhibition constant (Ki) of 26 nM.
For the compound `Cc1ccc(-c2cc(NCC(O)CO)c3ccccc3n2)cc1` (stereo not given), in data set [1], the inhibitory constant (Ki) turned out to be 23 nM.
In data set [1], `OCC(O)CNc1cc(C2CCc3ccccc3C2)nc2ccccc12` (stereo in doubt; 19) returned a Ki of 100 nM.
Regarding `OCC(O)CNc1cc(C2CCc3ccccc3C2)nc2ccccc12` (stereo in doubt; 20), the affinity in data set [1] corresponds to a Ki of 11 nM.
The compound `c1ccc(-c2ccc3ccccc3n2)cc1` [2-PHENYLQUINOLINE] yielded a pKa in data set [2] of 5.2. In addition, in data set [1], the inhibitory constant (Ki) is over 35000 nM.
